Values quoted from earlier work in US20170290285A1, “HIGH REBAUDIOSIDE-C PLANT VARIETAL AND COMPOSITIONS EXTRACTED THEREFROM WITH HIGH REBAUDIOSIDE-C AND TOTAL STEVIOL GLYCOSIDE CONTENT” (GLG Life Tech Corporation, priority 2014, published 2017).

Columns and labels:
[1] = for Relative sweetness: Table 1
[2] = heating at high temperature, cooking or barbecuing

Molecule: C[C@H](CC[C@@H](O[C@@H]1O[C@H](CO[C@@H]2O[C@H](CO)[C@@H](O)[C@H](O)[C@H]2O)[C@@H](O)[C@H](O)[C@H]1O[C@@H]1O[C@H](CO)[C@@H](O)[C@H](O)[C@H]1O)C(C)(C)O)[C@H]1CC[C@@]2(C)[C@@H]3CC=C4[C@@H](CC[C@H](O[C@@H]5O[C@H](CO[C@@H]6O[C@H](CO)[C@@H](O)[C@H](O)[C@H]6O)[C@@H](O)[C@H](O)[C@H]5O)C4(C)C)[C@]3(C)[C@H](O)C[C@]12C [Mogroside V]
- sweetness, times that of sugar ([1]; versus sugar, b159): about 300 times
- effect of heating on flavor [2]: does not affect the flavor

Molecule: C=C1C[C@@]23CC[C@H]4[C@@](C)(CCC[C@@]4(C)C(=O)[O-])[C@@H]2CC[C@]1(O[C@@H]1O[C@@H](CO)[C@@H](O)[C@H](O)[C@@H]1O[C@@H]1O[C@@H](CO)[C@@H](O)[C@H](O)[C@@H]1O)C3.[Na+] [Stevlolbioside]
- Relative sweetness [1]: 90
- Solubility in water, %: 0.03%

Molecule: Rebaudioside C
- sweetness, × of sugar ([1]; versus sugar, list b13-b15): 150-200 × of sugar

Molecule: Rubusoside
- Relative sweetness [1]: 110
